Laboratory results reported in ChEMBL document CHEMBL1201862, “PubChem BioAssay data set” (2004).
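Five concentrations, 48 hours, 96-well plates. The concentration for 50% growth inhibition is given as GI50.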 The source made the active and inactive calls. Rule as the data show it: active = GI50 up to about 1.1 µM and inactive = higher.

What was measured:
Assay in all cases: NCI tumour cell line growth inhibition, 48 h
[1] = tested on: A498
[2] = tested on: BT-549
[3] = tested on: COLO 205
[4] = tested on: EKVX
[5] = tested on: HCC 2998
[6] = tested on: HCT-116
[7] = tested on: IGROV-1
[8] = tested on: KM12
[9] = tested on: LOX IMVI
[10] = tested on: MCF7
[11] = tested on: MOLT-4
[12] = tested on: NCI-H226
[13] = tested on: NCI-H23
[14] = tested on: PC-3
[15] = tested on: RXF 393
[16] = tested on: SF-539
[17] = tested on: SN12C
[18] = tested on: SNB-75
[19] = tested on: UO-31
[20] = tested on: K562

Compound | GI50 [1] | GI50 [2] | GI50 [3] | GI50 [4] | GI50 [5] | GI50 [6] | GI50 [7] | GI50 [8] | GI50 [9] | GI50 [10] | GI50 [11] | GI50 [12] | GI50 [13] | GI50 [14] | GI50 [15] | GI50 [16] | GI50 [17] | GI50 [18] | GI50 [19] | GI50 [20]
CCOC(=O)/C=C(\C(=O)OCC)n1cc(Cl)c(=O)n(CC(=O)OCC)c1=O | 19.2 µM (inactive) | 18 µM (inactive) | 0.697 µM (active) | 14.3 µM (inactive) | 21.1 µM (inactive) | 2.19 µM (inactive) | 6.93 µM (inactive) | 18.2 µM (inactive) | 4.99 µM (inactive) | 2.62 µM (inactive) | 1.91 µM (inactive) | 16.4 µM (inactive) | 14.7 µM (inactive) | 14.5 µM (inactive) | 1.69 µM (inactive) | 14 µM (inactive) | 14.5 µM (inactive) | 18.7 µM (inactive) | 1.87 µM (inactive) | 
CCOP(=O)(OCC)C1CC(n2cc(C)c(=O)[nH]c2=O)OC1CO (stereo not drawn) | > 100 µM (inactive) | > 100 µM (inactive) |  |  | > 100 µM (inactive) | > 100 µM (inactive) | > 100 µM (inactive) | > 100 µM (inactive) | > 100 µM (inactive) | > 100 µM (inactive) | > 100 µM (inactive) | > 100 µM (inactive) | 99.1 µM (inactive) | > 100 µM (inactive) | > 100 µM (inactive) | > 100 µM (inactive) | > 100 µM (inactive) | > 100 µM (inactive) | > 100 µM (inactive) | > 100 µM (inactive)
CN(C)c1ccc(-c2c(C#N)c(S)n(NS(=O)(=O)c3ccccc3)c(=O)c2C#N)cc1 | 22.3 µM (inactive) | 21.1 µM (inactive) | 38.5 µM (inactive) | 32.6 µM (inactive) | 70.8 µM (inactive) | 27.2 µM (inactive) | 15.8 µM (inactive) | 16.2 µM (inactive) | 22.1 µM (inactive) | 24.2 µM (inactive) | 16.6 µM (inactive) |  | 30.8 µM (inactive) | 21.1 µM (inactive) | 20.4 µM (inactive) | 18.8 µM (inactive) | 20.2 µM (inactive) | 25.4 µM (inactive) | 25.5 µM (inactive) | 30.7 µM (inactive)
COc1ccc(OC/C(N)=N/NC(=O)c2ccncc2)cc1 | > 100 µM (inactive) | > 100 µM (inactive) | > 100 µM (inactive) | > 100 µM (inactive) | > 100 µM (inactive) | > 100 µM (inactive) | > 100 µM (inactive) | > 100 µM (inactive) | > 100 µM (inactive) | > 100 µM (inactive) | > 100 µM (inactive) |  | > 100 µM (inactive) | > 100 µM (inactive) | > 100 µM (inactive) | > 100 µM (inactive) | > 100 µM (inactive) | 8.22 µM (inactive) |  | > 100 µM (inactive)
CCOC(=O)/C=C(/OCC)[C@@H]1C(C(=O)c2ccc(Cl)cc2)[C@@H]1/C(=C\C(=O)OCC)OCC (stereo partly drawn) | 8.89 µM (inactive) | 48.5 µM (inactive) | 6.68 µM (inactive) | 14.5 µM (inactive) |  | 5.18 µM (inactive) | 56.5 µM (inactive) | 6.87 µM (inactive) | 24.3 µM (inactive) | 11.2 µM (inactive) | 3.98 µM (inactive) | 6.27 µM (inactive) | 11.7 µM (inactive) | 5.89 µM (inactive) | 14.3 µM (inactive) | 22.1 µM (inactive) | 17.7 µM (inactive) | 7.5 µM (inactive) | 4.53 µM (inactive) | 2.62 µM (inactive)
